Test results from patent US20250059174A1, “Pharmaceutical Compounds and Compositions as C-Kit Kinase Inhibitors” (Enanta Pharmaceuticals, Inc., priority 2023, published 2025).

Tests used:
[1] = target: Recombinant human c-KIT kinase (Homo sapiens (Human), UniProt P10721); experiment: c-KIT kinase chemiluminescence assay (ADP-Glo); format: biochemical; details: ATP 50 μM
In short: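 Recombinant human c-KIT preincubated 30 min at RT in 40 mM Tris pH 7.5, 20 mM MgCl2, 0.1 mg/mL BSA, 50 μM DTT, then reacted 2 h at RT with ATP and polyEY substrate. ADP-Glo luminescence readout; activity normalized to high/low controls, IC50 and Hill coefficient from inhibitor-versus-normalized-response fit.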

M-07e cells = experiment: M-07e cellular assay (SCF-mediated cell proliferation); format: cell-based; details: Homo sapiens, 72 hours, CellTiter Glo
In short: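 CellTiter Glo luminescence after 72 h compound exposure in SCF (EC90)-stimulated M-07e cells expressing endogenous human c-KIT.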

Recombinant human c-KIT kinase, sequence (P10721 26-976): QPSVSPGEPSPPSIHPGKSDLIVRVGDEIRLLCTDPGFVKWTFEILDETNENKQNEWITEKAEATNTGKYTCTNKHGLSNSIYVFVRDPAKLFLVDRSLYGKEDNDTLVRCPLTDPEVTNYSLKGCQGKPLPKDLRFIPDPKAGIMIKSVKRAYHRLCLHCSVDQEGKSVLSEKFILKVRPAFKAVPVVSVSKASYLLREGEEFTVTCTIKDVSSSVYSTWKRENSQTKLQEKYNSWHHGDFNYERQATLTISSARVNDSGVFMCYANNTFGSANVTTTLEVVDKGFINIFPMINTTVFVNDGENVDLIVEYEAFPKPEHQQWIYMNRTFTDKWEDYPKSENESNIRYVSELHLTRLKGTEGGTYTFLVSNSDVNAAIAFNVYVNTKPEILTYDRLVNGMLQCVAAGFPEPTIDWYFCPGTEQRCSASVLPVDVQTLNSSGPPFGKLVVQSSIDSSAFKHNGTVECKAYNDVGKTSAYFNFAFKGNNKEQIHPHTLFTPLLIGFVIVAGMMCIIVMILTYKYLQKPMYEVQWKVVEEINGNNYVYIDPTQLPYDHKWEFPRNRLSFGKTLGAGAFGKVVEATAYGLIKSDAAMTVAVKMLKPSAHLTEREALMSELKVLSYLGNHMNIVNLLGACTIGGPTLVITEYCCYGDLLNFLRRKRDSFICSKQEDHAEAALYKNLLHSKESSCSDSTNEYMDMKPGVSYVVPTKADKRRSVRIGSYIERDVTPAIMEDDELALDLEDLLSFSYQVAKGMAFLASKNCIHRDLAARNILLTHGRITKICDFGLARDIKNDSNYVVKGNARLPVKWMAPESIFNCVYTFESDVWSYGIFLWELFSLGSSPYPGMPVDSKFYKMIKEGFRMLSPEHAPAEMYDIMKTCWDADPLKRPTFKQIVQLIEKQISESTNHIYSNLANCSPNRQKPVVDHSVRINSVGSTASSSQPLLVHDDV

| Structure (SMILES) | IC50 [1] | EC50 (M-07e cells) |
| --- | --- | --- |
| Cc1ccc(-c2noc([C@H]3C[C@@H]3F)n2)cc1NC(=O)c1cnc(-c2cccc3cn[nH]c23)o1 [Example 308-23] | < 100 nM | > 1000 nM |
| Cc1ccc(-c2noc(C34CC(OC(F)F)(C3)C4)n2)cc1NC(=O)c1cnn2ccc(N3CC4(COC4)C3)cc12 [Example 271] | < 100 nM | < 100 nM |
| Cc1ccc(-c2noc([C@H]3C[C@@H]3F)n2)cc1NC(=O)c1cnc(-c2ccccn2)o1 [Example 296] | > 1000 nM | > 1000 nM |
| Cc1ccc(-c2noc(N3CC(O)(C(F)(F)F)C3)n2)cc1NC(=O)c1cnn2ccc(N3CC4(C3)CC(O)(C(F)F)C4)cc12 [Example 281-99] | < 100 nM | < 100 nM |
| Cc1ccc(-c2cnc(C3CC3)nc2)cc1NC(=O)c1cnn2ccc(N3CC4(C3)CC(O)(C(F)F)C4)cc12 [Example 353] | < 100 nM | < 100 nM |
| CC(=O)N1CCC(c2nc(-c3cnc(C)c(NC(=O)c4cnn5ccc(N6CC7(C6)CC(O)(C(F)F)C7)cc45)c3)no2)C1 (centres unmarked) [Example 281-55] | 100 to 1000 nM | > 1000 nM |
| COc1ccc(-c2ccn3ncc(C(=O)Nc4cc(-c5noc([C@H]6C[C@@H]6F)n5)ccc4C)c3c2)c(C)n1 [Example 171-20] | < 100 nM | < 100 nM |
| Cc1ccc(-c2noc([C@H]3C[C@@H]3F)n2)cc1NC(=O)c1cnn2ccc(N3CC4(C3)CC(C)(O)C4)cc12 [Example 181] | < 100 nM | < 100 nM |
| Cc1ccc(-c2noc([C@H]3C[C@@H]3F)n2)cc1NC(=O)c1cnn2ccc(N3CC4(CN(C(=O)OC(C)(C)C)C4)C3)cc12 [Example 207] | < 100 nM | 100 to 1000 nM |
| Cc1ccc(-c2noc([C@H]3C[C@@H]3F)n2)cc1NC(=O)c1cnn2cc(-c3c(C)nn(CC(C)(C)O)c3C)ccc12 [Example 144] | < 100 nM | < 100 nM |
| COc1ccc(-n2cc(C(=O)Nc3cc(-c4noc([C@H]5C[C@@H]5F)n4)ccc3C)cn2)cc1 [Example 52] | 100 to 1000 nM | 100 to 1000 nM |
| Cc1ccc(-c2noc([C@H]3C[C@@H]3F)n2)cc1NC(=O)c1cnn2ccc(CO)cc12 [Example 72] | < 100 nM | 100 to 1000 nM |
| Cc1ncc(-c2ncc(C(C)C)cn2)cc1NC(=O)c1cnn2ccc(N3CC4(C3)CC(O)(C(F)F)C4)cc12 [Example 326] | < 100 nM | < 100 nM |
| Cc1ccc(-c2noc([C@H]3C[C@H]3C(F)F)n2)cc1NC(=O)c1cnn2ccc(N3CC4(COC4)C3)cc12 [Example 276] | < 100 nM | < 100 nM |
| Cc1ccc(-c2ncc(C3CC3)cn2)cc1NC(=O)c1cnn2ccc(N3CC4(COC4)C3)cc12 [Example 335] | < 100 nM | < 100 nM |
| Cc1ccc(-c2noc(C3CC4(C3)CN(C(=O)[C@H]3C[C@@H]3F)C4)n2)cc1NC(=O)c1cnn2ccc(N3CC4(COC4)C3)cc12 [Example 281-106] | 100 to 1000 nM | 100 to 1000 nM |
| Cc1ncc(-c2noc(C3CC(F)(F)C3)n2)cc1NC(=O)c1cnn2ccc(N3CC4(C3)CC(O)(C(F)F)C4)cc12 [Example 281-69] | 100 to 1000 nM | < 100 nM |
| Cc1ncc(-c2noc([C@H]3C[C@@H](C(F)(F)F)C3)n2)cc1NC(=O)c1cnn2cc(-c3cn(C(F)F)nn3)ccc12 [Example 132-8] | < 100 nM | < 100 nM |
| Cc1ncc(-c2noc([C@H]3C[C@@H](OC(F)(F)F)C3)n2)cc1NC(=O)c1cnn2cc(-c3cn(C(F)F)nn3)ccc12 [Example 132-6] | 100 to 1000 nM | < 100 nM |
| CC(=O)N1CCN(c2ccn3ncc(C(=O)Nc4cc(-c5noc([C@H]6C[C@@H]6F)n5)ccc4C)c3c2)CC1 [Example 241-6] | < 100 nM | < 100 nM |
| Cc1sc(-c2ncc(C3CC3)cn2)cc1NC(=O)c1cnn2ccc(N3CC4(C3)CC(O)(C(F)F)C4)cc12 [Example 346] | < 100 nM | < 100 nM |
| Cc1ccc(-c2noc([C@H]3C[C@@H]3F)n2)cc1NC(=O)c1cnc2n1C(C)(C)c1ccccc1-2 [Example 105] | 100 to 1000 nM | 100 to 1000 nM |
| Cc1ccc(-c2noc([C@H]3C[C@@H]3F)n2)cc1NC(=O)c1cnn2ccc(N3CCN(C(=O)C(F)(F)F)[C@H](C)C3)cc12 [Example 241-4] | < 100 nM | < 100 nM |

| Structure (SMILES) | IC50 [1] | EC50 (M-07e cells) |
| --- | --- | --- |
| Cc1ccc(-c2noc(C3CN(C(=O)N(C)C4CC4)C3)n2)cc1NC(=O)c1cnn2ccc(N3CC4(COC4)C3)cc12 [Example 281-50] | 100 to 1000 nM | 100 to 1000 nM |
| COC(=O)N1CC(c2nc(-c3ccc(C)c(NC(=O)c4cnn5ccc(N6CC7(COC7)C6)cc45)c3)no2)C1 [Example 281-43] | < 100 nM | < 100 nM |
| Cc1cc2cc(-c3ncc(C(=O)Nc4cc(-c5noc([C@H]6C[C@@H]6F)n5)ccc4C)o3)ccc2[nH]1 [Example 308-27] | < 100 nM | < 100 nM |
| Cc1ccc(-c2noc([C@H]3C[C@@H]3F)n2)cc1NC(=O)c1cnn2ccc(-c3nnn(CC(C)(C)O)n3)cc12 [Example 132] | < 100 nM | < 100 nM |
| Cc1ccc(-c2noc([C@H]3C[C@@H]3F)n2)cc1NC(=O)c1cnn2ccc(-c3c(C)nc(Cl)nc3C)cc12 [Example 171-8] | 100 to 1000 nM | 100 to 1000 nM |
| Cc1ccc(-c2noc([C@H]3C[C@@H]3F)n2)cc1NC(=O)c1cnc(-c2ccc(N3CC4(COC4)C3)cc2)o1 [Example 297] | 100 to 1000 nM | 100 to 1000 nM |
| [2H]C([2H])([2H])c1ccc(-c2noc([C@H]3C[C@@H](OC(F)F)C3)n2)cc1NC(=O)c1cnn2ccc(N3CC4(COC4)C3)cc12 [Example 281-4] | < 100 nM | < 100 nM |
| CO[C@H]1C[C@@H](c2nc(-c3ccc(C)c(NC(=O)c4cnn5ccc(N6CC7(COC7)C6)cc45)c3)no2)C1 [Example 273] | 100 to 1000 nM | < 100 nM |
| Cc1ncc(-c2noc([C@H]3C[C@@H]3F)n2)cc1NC(=O)c1cnn2ccc(-c3c(C)nc(N)nc3C)cc12 [Example 171-10] | > 1000 nM | > 1000 nM |
| COC(=O)N1CCC(c2nc(-c3ccc(C)c(NC(=O)c4cnn5ccc(N6CC7(COC7)C6)cc45)c3)no2)CC1 [Example 281-132] | < 100 nM | < 100 nM |
| Cc1ccc(-c2noc([C@H]3C[C@@H]3F)n2)cc1NC(=O)c1cnn2ccc(N3CC(CO)(C(=O)O)C3)cc12 [Example 241-16] | 100 to 1000 nM | > 1000 nM |
| Cc1ccc(-c2ncc(OC(F)F)cn2)cc1NC(=O)c1cnc(-c2ccc3c(c2)CC(=O)N3)o1 [Example 359] | 100 to 1000 nM | 100 to 1000 nM |
| Cc1cc(F)c(-c2noc([C@H]3C[C@@H]3F)n2)cc1NC(=O)c1cnn2ccc(N3CC4(COC4)C3)cc12 [Example 281-42] | < 100 nM | < 100 nM |
| Cc1ccc(-c2noc([C@H]3C[C@@H](OC(F)(F)F)C3)n2)cc1NC(=O)c1cnn2ccc(N3CC4(CN(CC(F)F)C4)C3)cc12 [Example 259] | < 100 nM | < 100 nM |
| CC(=O)N1CC(c2nc(-c3ccc(C)c(NC(=O)c4cnn5ccc(N6CC7(COC7)C6)cc45)c3)no2)C1 [Example 281-19] | 100 to 1000 nM | > 1000 nM |
| Cc1ncc(-c2ccc3c(C(=O)Nc4cc(-c5noc([C@H]6C[C@@H]6F)n5)ccc4C)cnn3c2)c(C)n1 [Example 169] | 100 to 1000 nM | 100 to 1000 nM |
| CC(=O)N1CCC(c2nc(-c3cnc(C)c(NC(=O)c4cnn5ccc(N6CC7(C6)CC(O)(C(F)F)C7)cc45)c3)no2)CC1 [Example 281-72] | > 1000 nM | > 1000 nM |
| Cc1ccc(-c2noc([C@H]3C[C@@H]3F)n2)cc1NC(=O)c1cnn2ccc(N3C[C@@H](F)[C@@H]3C)cc12 [Example 224] | < 100 nM | < 100 nM |
| Cc1ccc(-c2noc([C@H]3C[C@@H]3F)n2)cc1NC(=O)c1cnn2ccc(N3CCNC[C@H]3C)cc12 [Example 195] | < 100 nM | 100 to 1000 nM |
| Cc1ccc(-c2noc([C@H]3C[C@@H]3F)n2)cc1NC(=O)c1cnn2ccc(OC3COC3)cc12 [Example 219] | < 100 nM | < 100 nM |
| Cc1ccc(-c2noc([C@H]3C[C@@H]3F)n2)cc1NC(=O)c1cnc(-c2c(C)nn(CC(C)(C)O)c2C)o1 [Example 308-7] | > 1000 nM | > 1000 nM |
| Cc1ccc(-c2noc([C@H]3C[C@@H]3F)n2)cc1NC(=O)c1cnn2ccc(N3CC4(C3)CC(O)(C(F)(F)F)C4)cc12 [Example 233] | < 100 nM | < 100 nM |
| Cc1ccc(-c2noc([C@H]3C[C@@H]3F)n2)cc1NC(=O)c1cnn2ccc(-c3ccc(C#N)nc3C)cc12 [Example 171-16] | < 100 nM | < 100 nM |
